Measured values as given in patent US12064482B2, “Triplet-triplet energy transfer with light excitation at long wavelengths and methods thereof” (THE UNIVERSITY OF HONG KONG, priority 2018, dated 2024).

Key:
[1] = literature ref. [10]; cited from earlier work
[2] = Photocleavage of BODIPY-CAB and photorelease of CAB in solution, determined by HPLC; assay type: physicochemical
From the text: FIG. 4. HPLC spectra of CAB (10^−4 M), PtTPBP (10^−5 M), BODIPY-CAB (10^−4 M), BODIPY-CAB (10^−4 M) with 530 nm irradiation (44 mW/cm^2) for 15 s under N2 atmosphere, the mixture of BODIPY-CAB (10^−4 M) and PtTPBP (10^−5 M) with 625 nm irradiation (44 mW/cm^2) for 15 s under N2 atmosphere, the mixture of BODIPY-CAB (10^−4 M) and PtTPBP (10^−5 M) without irradiation under N2 atmosphere, and BODIPY-CAB (10^−4 M) with 625 nm irradiation (44 mW/cm^2) for 15 s under N2 atmosphere. The detection wavelength was 260 nm. A small amount of toluene, whose peak was located at ˜8.7 min, was used to increase the solubility of PtTPBP. The yellow arrows indicate the signal of CAB; the red arrows indicate the signal of BODIPY-CAB; and the green arrows indicate the signal of PtTPBP.
FIG. 5. Photocleavage rate of the prodrug (BODIPY-CAB), as determined by HPLC (detected at 540 nm), after irradiation with 625 nm LED light at 44 mW/cm^2. The mixed solution of BODIPY-CAB (10^−4 M) and PtTPBP (10^−5 M, […] or 0 M) was protected under nitrogen (N2) or exposed in the air, and then irradiated for different time periods in the mixed solvents of dichloromethane (DCM) and methanol (1:9, v/v). The solution (50 μL) was then analyzed by HPLC to measure the concentration of BODIPY-CAB. Data are means±SD, n=3.
FIG. 6. Photorelease of the free drug (CAB), as determined by HPLC (detected at 260 nm), after irradiation with 625 nm LED light at 44 mW/cm^2. The mixed solution of BODIPY-CAB (10^−4 M) and PtTPBP ([…], 5×10^−6 M, 10^−6 M or 0 M) was protected under nitrogen (N2) or exposed in the air, and then irradiated for different time periods in the mixed solvents of dichloromethane (DCM) and methanol (1:9, v/v). The solution (50 μL) was then analyzed by HPLC to measure the concentration of CAB. Data are means f SD, n=3.
The intermediates and the final product were characterized by proton nuclear magnetic resonance (^1H NMR) spectra (FIG. 12-FIG. 15). The absorption and emission peaks of BODIPY-CAB were located at the wavelength of 543 nm and 567 nm, respectively (FIG. 3). To confirm whether the BODIPY prodrug could be sensitized by PtTPBP and could further be cleaved to release the drug, high performance liquid chromatography (HPLC) was utilized to monitor the generation of CAB. […] After addition of photosensitizer PtTPBP, the mixture solution of PtTPBP and BODIPY-CAB was irradiated with 625 nm light for 15 sec.
Furthermore, the photocleavage of BODIPY-CAB was investigated with different ratios of BODIPY-CAB and PtTPBP upon 625 nm light irradiation. […] When the concentration of photosensitizer was decreased, the photocleavage of BODIPY-CAB slowed down. […] Moreover, as O2 can quench the triplet excited state of PtTPBP, the prodrug cannot be cleaved efficiently in the presence of O2.

Structure (SMILES)	cytotoxicity [1]	generation of CAB (HPLC) ([2]; 530 nm (44 mW/cm^2), 15 s, no photosensitizer, N2)	generation of CAB (HPLC) ([2]; 625 nm (44 mW/cm^2), 15 s, with PtTPBP, N2)	generation of CAB (HPLC) ([2]; 625 nm, 15 s, in the absence of PtTPBP, N2)	rate of photocleavage and photorelease ([2]; 625 nm, with PtTPBP, in the air atmosphere (O2))	prodrug remained in the solution ([2]; BODIPY-CAB:PtTPBP 100:1, 625 nm LED 44 mW/cm^2, 30 s, N2) [%]	photocleavage of the prodrug ([2]; BODIPY-CAB:PtTPBP 100:10, 625 nm LED 44 mW/cm^2, 15 s, N2)	free drug CAB released ([2]; BODIPY-CAB:PtTPBP 100:10, 625 nm LED 44 mW/cm^2, 15 s, N2, DCM/methanol 1:9) [%]	generation of CAB (HPLC) ([2]; mixture with PtTPBP not irradiated, N2)
[Pt+2].c1ccc(-c2c3nc(c(-c4ccccc4)c4[n-]c(c(-c5ccccc5)c5nc(c(-c6ccccc6)c6[n-]c2c2ccccc62)-c2ccccc2-5)c2ccccc42)-c2ccccc2-3)cc1 [PtTPBP, platinum (II) tetraphenyltetrabenzoporphyrin]	minimal	–	–	–	–	–	–	–	–
CC1=C(I)C(C)=[N+]2C1=C(COC(=O)CCCc1ccc(N(CCCl)CCCl)cc1)c1c(C)c(I)c(C)n1[B-]2(C)C [BODIPY-CAB]	–	leads to the release of CAB	new peak located at ˜11.2 min was appeared	did not generate CAB	dramatically deceased rate of photocleavage and photorelease	59.6	almost cleaved completely	41.7	did not generate CAB
